Marks after values point to notes of the source that are not given here.
Key:
Assay type in all cases: in vivo, C57BL/6N/CriBgi mice
[1] = test system: glucose-6-phosphate dehydrogenase (G6PD); assay: G6PD activity in adipose tissue; details: high fat diet, 6 weeks
Text: (§1) Test diets were as follows: “normal diet group”=AIN-76 semisynthetic diet of Teklad (Madison, Wl, USA); “high fat diet group”=normal diet+10% of corn oil and 10% of lard; “test group I”=high fat diet+fucoxanthin extract of Example 1 (fucoxanthin content=0.05%); “test group II”=high fat diet+fucoxanthin extract of Example 1 (fucoxanthin content=0.2%); “test group III”=high fat diet+fucoxanthin extract of Example 2 (fucoxanthin content=0.05%); “test group IV”=high fat diet+fucoxanthin extract of Example 2 (fucoxanthin content=0.2%). The 6 diets (normal diet, high fat diet, and test I, II, III and IV) were given to the animals for 6 weeks. Diet intake was recorded every day, and body weight was measured once a week.
(§2) The supernatant was centrifuged again at 12,000×g for 15 minutes. Then, the supernatant was subjected to high-speed centrifuging (Beckman, Optima TLX-120, USA) at 100,000×g for 1 hour. Then, change of the activity of enzymes involved in the synthesis of fatty acid—fatty acid synthase (FAS), glucose-6-phosphate dehydrogenase (G6PD) and malic enzyme (ME)—was measured.
The G6PD enzyme is an enzyme that supplied reducing energy required for the synthesis of fatty acid. […] G6PD activity was measured at 340 nm by the degree of reduction of NADP^+ to NADPH by G6PD. […] G6PD activity was calculated as nmol of NADPH produced per 1 mg of protein in cell per minute.

β-oxidase mRNA = assay: Expression of mRNA for β-oxidation in adipose tissue (real-time PCR); details: normal diet = 1.00, GAPDH internal marker
Text: as §1
(§3) 5 mL of Trizol was added to 0.5 g of white adipose tissue. After pulverizing in liquid nitrogen using a mortar, the tissue was added to 1 mL of chloroform. […] The isolated RNA was diluted and absorbance was measured at 260 nm using a UV spectrometer. […]
(§4) Thus prepared cDNA was […] 10-fold, and primers for analyzing the expression of the respective genes (CPT, β-oxidation, FAS, ME and G6PD) were obtained from Genotech (Daejeon, Korea). […] Fluorescence signals were monitored for each cycle and threshold cycle (Cr) was analyzed for quantitative analysis of mRNA for the test groups (Applied Biosystems, SDS7000) (Livak, 2001). […]

[2] = test system: carnitine palmitoyltransferase (CPT); assay: CPT activity (mitochondrial fraction); details: high fat diet, 6 weeks
Text: as §1
CPT is an enzyme involved in the oxidation of fatty acid and may be used as an index for the degree of oxidation of fatty acid. CPT activity was calculated from the measurement of CoASH produced from palmitoyl-CoA using 5,5-dithiobis-(2-nitrobenzoic acid) (DTNB). Specifically, 50 μL of mitochondrial fraction was added to a reaction solution containing 116 mM Tris-HCl (pH 8.0), 1.1 mM EDTA, 2.50 mM 1-carnitine, 0.5 mM DTNB, […] palmitoyl-CoA and 0.2% Triton X-100 to initiate reaction. Then, change of absorbance was measured at 25° C. and 412 nm for 2 minutes.

[3] = test system: fatty acid synthase (FAS); assay: FAS activity in adipose tissue; details: high fat diet, 6 weeks
Text: as §1, §2
(§5) Specifically, FAS activity was determined as follows. […] After 10 minutes of reaction at 30° C., decrease of absorbance was measured. FAS activity was calculated as nmol of NADPH oxidized per 1 mg of protein in cell per minute.

G6PD mRNA = assay: Expression of mRNA for G6PD in adipose tissue (real-time PCR); details: normal diet = 1.00, GAPDH internal marker
Text: as §1, §3, §4

[4] = test system: fatty acid synthase (FAS); assay: FAS activity in liver tissue; details: high fat diet, 6 weeks
Text: as §1, §2, §5

[5] = Triglyceride and cholesterol level in liver tissue; details: high fat diet, 6 weeks
Procedure: Seventy (70) 4-week-old male C57BL/6N/CriBgi mice weighing 14 g were purchased from Orient, and reared in separate cages maintained at 24° C. and relative humidity of 55%, providing light from 08:00 until 20:00. The mice were accustomed while providing a pellet type diet for a week. The mice, which weighed 18.5-18.7 g, were grouped into seven groups by the randomized block design. Each group was given a different diet, as follows.
as §1

[6] = fucoxanthin content 0.05% (Test I/III)
[7] = fucoxanthin content 0.2% (Test II/IV)

CC(=O)O[C@H]1CC(C)(C)C(=C=C/C(C)=C/C=C/C(C)=C/C=C/C=C(C)/C=C/C=C(\C)C(=O)C[C@@]23O[C@]2(C)C[C@@H](O)CC3(C)C)[C@](C)(O)C1 [highly pure fucoxanthin, Fucoxanthin]
G6PD activity [1, 6]: 1.25 ± 0.27^a mmol/min/mg protein
G6PD activity [1, 7]: 1.27 ± 0.15^a mmol/min/mg protein
Expression of mRNA, β-Oxidation (β-oxidase mRNA; [6]): 1.41 ± 0.50^b
Expression of mRNA, β-Oxidation (β-oxidase mRNA; [7]): 1.26 ± 0.24^b
CPT activity [2, 6]: 13.36 ± 1.66^ab mmol/min/mg protein
CPT activity [2, 7]: 40.30 ± 12.10^c mmol/min/mg protein
FAS activity [3, 6]: 90.55 ± 9.66^a mmol/min/mg protein
FAS activity [3, 7]: 74.26 ± 6.38^a mmol/min/mg protein
Expression of mRNA, G6PD (G6PD mRNA; [6]): 1.10 ± 0.15^abc
Expression of mRNA, G6PD (G6PD mRNA; [7]): 0.67 ± 0.04^a
FAS activity [4, 6]: 7.92 ± 0.59^a mmol/min/mg protein
FAS activity [4, 7]: 9.49 ± 0.65^ab mmol/min/mg protein
Triglyceride level in liver tissue [5, 6]: 0.14 ± 0.01^c mmol/g liver
Triglyceride level in liver tissue [5, 7]: 0.17 ± 0.02^b mmol/g liver
